According to PubChem BioAssay (NCI):
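96-well plates; 48 h exposure; 5 concentrations. Endpoints by linear interpolation between flanking doses. Not reached: highest tested concentration assigned. At the TGI there is no net growth.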

Experiments:
Test in all cases: NCI tumour cell line growth inhibition, 48 h
786-0 renal = tested on: 786-0 renal
A498 renal = tested on: A498 renal
A549 NSCLC = tested on: A549 NSCLC
ACHN renal = tested on: ACHN renal
BT-549 breast = tested on: BT-549 breast
CAKI-1 renal = tested on: CAKI-1 renal
CCRF-CEM leukemia = tested on: CCRF-CEM leukemia
COLO 205 colon = tested on: COLO 205 colon
DU-145 prostate = tested on: DU-145 prostate
EKVX NSCLC = tested on: EKVX NSCLC
HCT-116 colon = tested on: HCT-116 colon
HCT-15 colon = tested on: HCT-15 colon
HL-60(TB) leukemia = tested on: HL-60(TB) leukemia
HOP-62 NSCLC = tested on: HOP-62 NSCLC
HOP-92 NSCLC = tested on: HOP-92 NSCLC
HS 578T breast = tested on: HS 578T breast
HT29 colon = tested on: HT29 colon
IGROV1 ovarian = tested on: IGROV1 ovarian
K-562 leukemia = tested on: K-562 leukemia
KM12 colon = tested on: KM12 colon
LOX IMVI melanoma = tested on: LOX IMVI melanoma
M14 melanoma = tested on: M14 melanoma
MALME-3M melanoma = tested on: MALME-3M melanoma
MCF7 breast = tested on: MCF7 breast
MDA-MB-231 breast = tested on: MDA-MB-231 breast
MDA-MB-435 = tested on: MDA-MB-435
MDA-N = tested on: MDA-N
MOLT-4 leukemia = tested on: MOLT-4 leukemia
NCI-H226 lung = tested on: NCI-H226 lung
NCI-H23 lung = tested on: NCI-H23 lung
NCI-H460 lung = tested on: NCI-H460 lung
NCI-H522 lung = tested on: NCI-H522 lung
NCI/ADR-RES ovarian = tested on: NCI/ADR-RES ovarian
OVCAR-3 ovarian = tested on: OVCAR-3 ovarian
OVCAR-4 ovarian = tested on: OVCAR-4 ovarian
OVCAR-5 ovarian = tested on: OVCAR-5 ovarian
OVCAR-8 ovarian = tested on: OVCAR-8 ovarian
PC-3 prostate = tested on: PC-3 prostate
RPMI-8226 leukemia = tested on: RPMI-8226 leukemia
RXF 393 renal = tested on: RXF 393 renal
SF-268 CNS = tested on: SF-268 CNS
SF-295 CNS = tested on: SF-295 CNS
SF-539 CNS = tested on: SF-539 CNS
SK-MEL-2 melanoma = tested on: SK-MEL-2 melanoma
SK-MEL-28 melanoma = tested on: SK-MEL-28 melanoma
SK-MEL-5 melanoma = tested on: SK-MEL-5 melanoma
SK-OV-3 ovarian = tested on: SK-OV-3 ovarian
SN12C renal = tested on: SN12C renal
SNB-19 CNS = tested on: SNB-19 CNS
SNB-75 CNS = tested on: SNB-75 CNS
SW-620 colon = tested on: SW-620 colon
T-47D breast = tested on: T-47D breast
TK-10 renal = tested on: TK-10 renal
U251 CNS = tested on: U251 CNS
UACC-257 melanoma = tested on: UACC-257 melanoma
UACC-62 melanoma = tested on: UACC-62 melanoma
UO-31 renal = tested on: UO-31 renal

Question: `Cc1ccc(I)cc1N=C=S` was tested. Which TGI (786-0 renal) did it give?
Answer: The TGI was 60 µM.

Question: What about the TGI (A498 renal) of the same compound?
Answer: The TGI was 48.8 µM.

Question: And the TGI (A549 NSCLC)?
Answer: Its TGI is 82.3 µM.

Question: And the TGI (ACHN renal)?
Answer: The TGI was 54.8 µM.

Question: And the TGI (BT-549 breast)?
Answer: The TGI was 30.5 µM.

Question: What about the TGI (CAKI-1 renal) of the same compound?
Answer: The TGI was 71.2 µM.

Question: And the TGI (CCRF-CEM leukemia)?
Answer: Its TGI is 57.2 µM.

Question: What about the TGI (COLO 205 colon) of the same compound?
Answer: Its TGI is 34 µM.

Question: And the TGI (DU-145 prostate)?
Answer: The TGI was 96.1 µM.

Question: What about the TGI (EKVX NSCLC) of the same compound?
Answer: Its TGI is 63.4 µM.

Question: What about the TGI (HCT-116 colon) of the same compound?
Answer: Its TGI is 91.9 µM.

Question: What about the TGI (HCT-15 colon) of the same compound?
Answer: The TGI was 34.8 µM.

Question: What about the TGI (HL-60(TB) leukemia) of the same compound?
Answer: The TGI was 44.3 µM.

Question: What about the TGI (HOP-62 NSCLC) of the same compound?
Answer: Its TGI is 59.8 µM.

Question: What about the TGI (HOP-92 NSCLC) of the same compound?
Answer: The TGI was greater than 100 µM.

Question: What about the TGI (HS 578T breast) of the same compound?
Answer: Its TGI is 91.8 µM.

Question: What about the TGI (HT29 colon) of the same compound?
Answer: The TGI was 53 µM.

Question: And the TGI (IGROV1 ovarian)?
Answer: The TGI was greater than 100 µM.

Question: What about the TGI (K-562 leukemia) of the same compound?
Answer: The TGI was 54.7 µM.

Question: And the TGI (KM12 colon)?
Answer: The TGI was 36.9 µM.

Question: And the TGI (LOX IMVI melanoma)?
Answer: Its TGI is 53.8 µM.

Question: And the TGI (M14 melanoma)?
Answer: Its TGI is 38.7 µM.

Question: What about the TGI (MALME-3M melanoma) of the same compound?
Answer: The TGI was 61.5 µM.

Question: What about the TGI (MCF7 breast) of the same compound?
Answer: Its TGI is 54.4 µM.

Question: And the TGI (MDA-MB-231 breast)?
Answer: The TGI was 71.1 µM.

Question: What about the TGI (MDA-MB-435) of the same compound?
Answer: Its TGI is 73.7 µM.

Question: And the TGI (MDA-N)?
Answer: The TGI was 86.5 µM.

Question: What about the TGI (MOLT-4 leukemia) of the same compound?
Answer: The TGI was 43.8 µM.

Question: What about the TGI (NCI-H226 lung) of the same compound?
Answer: The TGI was 39.9 µM.

Question: What about the TGI (NCI-H23 lung) of the same compound?
Answer: Its TGI is 42.1 µM.

Question: What about the TGI (NCI-H460 lung) of the same compound?
Answer: The TGI was 52.1 µM.

Question: And the TGI (NCI-H522 lung)?
Answer: The TGI was 36.6 µM.

Question: What about the TGI (NCI/ADR-RES ovarian) of the same compound?
Answer: Its TGI is 63.3 µM.

Question: And the TGI (OVCAR-3 ovarian)?
Answer: Its TGI is greater than 100 µM.

Question: And the TGI (OVCAR-4 ovarian)?
Answer: Its TGI is greater than 100 µM.

Question: What about the TGI (OVCAR-5 ovarian) of the same compound?
Answer: Its TGI is 50.4 µM.

Question: What about the TGI (OVCAR-8 ovarian) of the same compound?
Answer: Its TGI is greater than 100 µM.

Question: What about the TGI (PC-3 prostate) of the same compound?
Answer: The TGI was 51.4 µM.

Question: What about the TGI (RPMI-8226 leukemia) of the same compound?
Answer: Its TGI is 54.1 µM.

Question: What about the TGI (RXF 393 renal) of the same compound?
Answer: Its TGI is 40.6 µM.

Question: What about the TGI (SF-268 CNS) of the same compound?
Answer: The TGI was 75.8 µM.

Question: And the TGI (SF-295 CNS)?
Answer: Its TGI is 62.8 µM.

Question: And the TGI (SF-539 CNS)?
Answer: Its TGI is 35.4 µM.

Question: And the TGI (SK-MEL-2 melanoma)?
Answer: Its TGI is 38.6 µM.

Question: What about the TGI (SK-MEL-28 melanoma) of the same compound?
Answer: Its TGI is 39.2 µM.

Question: And the TGI (SK-MEL-5 melanoma)?
Answer: Its TGI is 30.1 µM.

Question: And the TGI (SK-OV-3 ovarian)?
Answer: Its TGI is greater than 100 µM.

Question: And the TGI (SN12C renal)?
Answer: The TGI was 49.3 µM.

Question: What about the TGI (SNB-19 CNS) of the same compound?
Answer: Its TGI is 70.1 µM.

Question: And the TGI (SNB-75 CNS)?
Answer: The TGI was 52.7 µM.

Question: What about the TGI (SW-620 colon) of the same compound?
Answer: Its TGI is greater than 100 µM.

Question: And the TGI (T-47D breast)?
Answer: Its TGI is 42.5 µM.

Question: What about the TGI (TK-10 renal) of the same compound?
Answer: The TGI was 88.7 µM.

Question: What about the TGI (U251 CNS) of the same compound?
Answer: The TGI was 48.6 µM.

Question: And the TGI (UACC-257 melanoma)?
Answer: Its TGI is 63.9 µM.

Question: And the TGI (UACC-62 melanoma)?
Answer: Its TGI is 31.6 µM.

Question: And the TGI (UO-31 renal)?
Answer: Its TGI is 33 µM.
